According to patent publication US6461844B1, “Liver GalNAc-1-phosphate kinase” (The Board of Trustees of the University of Arkansas, priority 1995, dated 2002):

Assays:
[1] = target: T1, GalNAc kinase (Sus scrofa, UniProt A0A287BB25); assay: Phosphate donor specificity of GalNAc kinase; format: biochemical, pig; parameters: Radioactivity in Sugar-P: unit not given beside the values; conditions: for Radioactivity in Sugar-P / Specific Activity: nucleotide added at 5 mM
T1 construct: This enzyme was purified about 1400-fold from the cytosolic fraction of pig kidney; from tissue; host or cells: pig kidney cytosol
T1 sequence (A0A287BB25 1-458): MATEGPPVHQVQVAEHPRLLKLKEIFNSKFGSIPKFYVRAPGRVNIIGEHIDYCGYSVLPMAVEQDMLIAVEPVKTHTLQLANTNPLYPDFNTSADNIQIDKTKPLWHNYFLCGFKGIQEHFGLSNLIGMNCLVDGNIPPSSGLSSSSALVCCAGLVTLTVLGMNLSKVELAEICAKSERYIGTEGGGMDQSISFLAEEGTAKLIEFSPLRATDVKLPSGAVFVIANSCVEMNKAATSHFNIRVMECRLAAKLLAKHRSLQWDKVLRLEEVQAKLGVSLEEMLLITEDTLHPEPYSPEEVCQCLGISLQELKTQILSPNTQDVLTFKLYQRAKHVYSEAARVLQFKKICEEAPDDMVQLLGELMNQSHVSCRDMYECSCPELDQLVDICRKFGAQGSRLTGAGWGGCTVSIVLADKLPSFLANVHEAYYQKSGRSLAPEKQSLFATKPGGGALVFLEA

[2] = target: T1, GalNAc kinase; assay: Divalent cation requirement of GalNAc kinase; format: biochemical, pig; conditions: for stimulation of the kinase: tested at a variety of concentrations
Experimental: FIG. 1 illustrates the effect of various divalent cations on the GalNAc kinase. Various amounts of Mg^++, Mn^++, or Co^++ were added to incubations prepared as indicated below. The amount of GalNAc phosphorylated in each incubation by the purified enzyme was determined as described in the assay conditions.
(§1) GalNAc kinase activity was assayed in incubation mixtures of 200 μl containing the following components: [^3H]GalNAc (10,000 cpm), 1 μmole of ATP, 2 μmoles of MgCl2, 20 μmoles of Tris-HCl buffer, pH 7.5, and various amounts of the enzyme preparations to be assayed. Following an incubation for the appropriate time, the reaction was stopped by heating at 100° C. for 5 min., and the incubation mixture was applied to a column of DE-52. The column was washed with at least 5 column volumes of 10 mM (NH4)HCO3 buffer to remove unbound material, and then GalNAc phosphate was eluted with 500 mM ammonium bicarbonate. Aliquots of the wash and eluent were removed and assayed for their radioactive content by scintillation counting.
The addition of Mg^++ greatly stimulated the activity, and maximum activity occurred at 6 mM Mg^++. Other divalent cations, such as Mn^++ and Co^++ were also somewhat stimulatory, but much less so than Mg^++.

[3] = target: T2, yeast galactokinase (Saccharomyces cerevisiae, UniProt P04385); assay: Sugar specificity of yeast galactokinase; format: biochemical; conditions: for Radioactivity Incorporated (Δ cpm): minus 0 ul value
T2 construct: purchased Sigma Chemical Co
T2 sequence (P04385 1-528): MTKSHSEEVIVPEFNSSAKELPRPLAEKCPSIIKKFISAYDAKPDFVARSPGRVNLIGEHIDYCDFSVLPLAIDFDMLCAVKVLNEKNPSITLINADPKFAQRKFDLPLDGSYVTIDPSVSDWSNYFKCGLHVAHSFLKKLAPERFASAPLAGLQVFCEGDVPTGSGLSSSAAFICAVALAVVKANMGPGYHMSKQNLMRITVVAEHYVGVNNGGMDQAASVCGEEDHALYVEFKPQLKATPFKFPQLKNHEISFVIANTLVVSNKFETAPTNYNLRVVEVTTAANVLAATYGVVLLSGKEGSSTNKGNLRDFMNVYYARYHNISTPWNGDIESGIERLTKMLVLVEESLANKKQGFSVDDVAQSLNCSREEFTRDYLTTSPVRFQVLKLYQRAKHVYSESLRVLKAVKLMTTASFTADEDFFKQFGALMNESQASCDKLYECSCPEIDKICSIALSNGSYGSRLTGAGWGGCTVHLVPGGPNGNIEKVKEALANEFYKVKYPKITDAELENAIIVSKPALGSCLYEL
Source text: Galactokinase is an enzyme known to phosphorylate galactose in the one position. […] The specificity of the galactokinase and the GalNAc kinase indicate that they are two different enzymes.

[4] = target: T1, GalNAc kinase; assay: Sugar specificity of GalNAc kinase; format: biochemical, pig; conditions: for Radioactivity Incorp.: labeled sugars of same specific activity; for activity as phosphate acceptor: purified kinase; for activity as % of the activity observed with GalNAc: sugar as substrate
Experimental: as §1
A variety of sugars were tested and in each case the specific radioactivity of the labeled sugar was adjusted with unlabeled material so that all were of the same specific activity in order to allow a true comparison of their ability to serve as substrates for the kinase. The amount of radioactivity that bound to DE-52 and was eluted with (NH4)HCO3 was taken as a measure of phosphorylation by the enzyme.

Radioactivity in Sugar-P [1]	Specific Activity [1]	Radioactivity Incorporated ([3]; 2 ul enzyme)	Radioactivity Incorporated (Δ cpm) ([3]; 2 ul enzyme)	Radioactivity Incorporated ([3]; 4 ul enzyme)	Radioactivity Incorp. ([4]; 4 μl enzyme)	Radioactivity Incorp. ([4]; 8 μl enzyme)	Structure (SMILES)	other results
260	4.0 nmol/mg						Nc1ncnc2c1ncn2[C@@H]1O[C@H](COP(=O)(O)OP(=O)(O)O)[C@@H](O)[C@H]1O [ADP]	activity as phosphate donor [1]: only slightly above background levels
490	7.6 nmol/mg						Nc1ccn([C@@H]2O[C@H](COP(=O)(O)OP(=O)(O)O)[C@@H](O)[C@H]2O)c(=O)n1 [CDP]	activity as phosphate donor [1]: only slightly above background levels
370	5.8 nmol/mg						Nc1ccn([C@@H]2O[C@H](COP(=O)(O)OP(=O)(O)OP(=O)(O)O)[C@@H](O)[C@H]2O)c(=O)n1 [CTP]	activity as phosphate donor [1]: only slightly above background levels
							[Ca+2] [Ca^++]	stimulation of the kinase [2]: inactive
							[Co+2] [Co^++]	cation concentration for maximum (optimum) activity [2]: 10 mM; maximum activity relative to optimum concentrations of Mg++ ([2]; at optimum cation concentration): about 50%
							[Cu+2] [Cu^++]	stimulation of the kinase [2]: inactive
							[Fe+3] [Fe^+++]	stimulation of the kinase [2]: inactive
10	0.1 nmol/mg						Nc1nc2c(ncn2[C@@H]2O[C@H](COP(=O)(O)OP(=O)(O)O)[C@@H](O)[C@H]2O)c(=O)[nH]1 [GDP]	
300	4.7 nmol/mg						Nc1nc2c(ncn2[C@@H]2O[C@H](COP(=O)(O)OP(=O)(O)OP(=O)(O)O)[C@@H](O)[C@H]2O)c(=O)[nH]1 [GTP]	activity as phosphate donor [1]: only slightly above background levels
		6900 cpm	6835 cpm	7530 cpm	301 cpm	442 cpm	O=C[C@H](O)[C@@H](O)[C@@H](O)[C@H](O)CO [Gal, galactose]	activity as substrate of yeast galactokinase [3]: very active; Radioactivity Incorporated (Δ cpm) ([3]; 4 ul enzyme): 7465 cpm; activity as phosphate acceptor [4]: inactive; activity as % of the activity observed with GalNAc [4]: 1%
		300 cpm	173 cpm	440 cpm	449 cpm	468 cpm	N[C@H]1C(O)O[C@H](CO)[C@H](O)[C@@H]1O (stereo partly drawn) [GalN, galactosamine]	activity as substrate of yeast galactokinase [3]: slight activity; activity as phosphate acceptor [4]: inactive; activity as % of the activity observed with GalNAc [4]: 1%
		37 cpm	0 cpm	83 cpm	14,094 cpm	18,448 cpm	CC(=O)N[C@H]1C(O)O[C@H](CO)[C@H](O)[C@@H]1O (stereo partly drawn) [GalNAc, N-acetylgalactosamine]	activity as substrate of yeast galactokinase [3]: no phosphorylation; Radioactivity Incorporated (Δ cpm) ([3]; 4 ul enzyme): 11 cpm
		135 cpm	0 cpm	150 cpm	189 cpm	206 cpm	N[C@H]1C(O)O[C@H](CO)[C@@H](O)[C@@H]1O (stereo partly drawn) [GlcN, glucosamine]	Radioactivity Incorporated (Δ cpm) ([3]; 4 ul enzyme): 0 cpm; activity as phosphate acceptor [4]: inactive
		133 cpm	60 cpm	84 cpm	135 cpm	147 cpm	CC(=O)N[C@H]1C(O)O[C@H](CO)[C@@H](O)[C@@H]1O (stereo partly drawn) [GlcNAc, N-acetylglucosamine]	Radioactivity Incorporated (Δ cpm) ([3]; 4 ul enzyme): 10 cpm; activity as phosphate acceptor [4]: inactive
